Measurements taken from article PMC9065145, “Open label safety and efficacy pilot to study mitigation of equine recurrent uveitis through topical suppressor of cytokine signaling-1 mimetic peptide” (Scientific Reports, 2022).
Like-named read-outs stand apart in the source and are kept apart here. Ends that are not written are not given here. palmitoyl‑Lys = palmitoyl-lysine

Assays:
induced uveitis = details: cited from earlier work
[1] = test system: lupus pathologies in preclinical models; details: cited from earlier work
Text: (§1) Many of the uveal tract destructive cytokines produced by infiltrating T lymphocytes are dependent on Jak2 for either production or signal transduction[38],[46]. […] Endogenous SOCS1 binds to the activation loop of JAK2, inhibit ...

SOCS1-/- mice = details: cited from earlier work
Text: as §1

[2] = test system: experimental autoimmune encephalomyelitis (a rodent model of multiple sclerosis); parameters: method as in PMID 21788442, PMID 21131060, PMID 33737712; details: peritoneal administration; cited from earlier work
[3] = test system: pJAK2 (1001–1013) peptide; test: Competitive inhibition binding assay; details: 5 µg/mL biotinylated pJAK2 pre-incubated with increasing soluble SOCS1-KIR (8-500, printed mg/mL), RT, then direct binding assay; semi-logarithmic fit R2 ≥ 0.95; n = 3
Protocol: Direct binding assays were performed at room temperature (RT) for 2 h as previously described[34] with modifications. Briefly, Polystyrene 96-well flat bottom plates were seeded with SOCS1 KIR peptide (500 µg/mL) in 0.05 M carbonate-bicarbonate buffer (pH 9.6). The plates were washed 4 times in the wash buffer (Phosphate-buffered saline in 0.05% Tween-20) followed by incubation for 2 h in blocking buffer (3% bovine serum albumin (BSA), 3 mM ethylenediaminetetraacetic acid (EDTA), 0.1% gelatin, and 0.05% Tween 20) and then washed 4 times. Serial dilutions of biotinylated phosphorylated JAK2 (pJAK2) in assay diluent (2% BSA, 3 mM EDTA, 0.01% gelatin, and 0.05% Tween 20) (10, 5, 2.5, 1.25, 0.625, 0.312 µg/mL) were then added to the coated plates for 90 min followed by washing 7 times. Streptavidin- horseradish peroxidase (1:4000, HRP) [BD Biosciences, Cat# 554066] was then added for 30 min followed by 12 wash cycles. Finally, 100 µL 3,3′,5,5′-Tetramethylbenzidine (TMB) substrate [BD Biosciences, Cat# 555214] was added for 30 min followed by assessment with spectrophotometer readings at an absorbance of 450 nm. For competitive Inhibition assays, 5 µg/mL biotinylated pJAK2 was pre-incubated with varying concentrations of SOCS1-KIR ([…]) for 1 h at RT prior and then, a direct binding assay was performed. […]

[4] = test system: equine recurrent uveitis (ERU); format: in vivo, horse; details: for Response to mimetic: symbols not defined
Text: A priori ERU patients with confirmed ERU but lacking severe ophthalmic decrements (evidence of chronicity), were optimal for enrollment in clinical trial. However, given the unmet need presented by ERU, horses with uncontrolled ERU-mediated inflammation were also enrolled (even with ophthalmic decrement), given that peptide efficacy could be assessed. Reduction in hyperemia was established as the primary endpoint evaluation of peptide efficacy. A priori power analysis established that nine patients would be required to assess a significant decrease in hyperemia, based on historical data from the institution. Ten total patients were enrolled through direct contact with Dr. Plummer. […] No exclusions were made, with all participants noted in Table 1. All procedures were conducted on equine patients subsequent to owner consent.
Ten horses (7 geldings and 3 mares) diagnosed with ERU were enrolled in a short-term, open-label trial to assess the efficacy of topical SOCS1 KIR. The administration of the SOCS1 KIR peptide was in the context of a therapeutic treatment. The horses of varied breed (appaloosa, quarter horse, miniature, and paint- aged 5–21) enrolled in the trial, presenting with acute or insidious disease, were admitted into the University of Florida Veterinary Hospital for 4–7 days to begin treatments with topical SOCS1 KIR. The horses admitted to the clinic were closely evaluated for efficacy and possible negative effects of the treatment. Examinations included intraocular pressure measurement, slit lamp biomicroscopy, and direct and indirect ophthalmoscopy as possible. 200 µg of SOCS1 KIR was administered in 100 µL topically, which was a small volume that prevented reflex tear formation and possible peptide elimination. Seven of 10 patients presented with bilateral disease for a total evaluation of 17 eyes to assess peptide efficacy (Table 1). After hospitalization, ERU patients were returned to their owners, who continued peptide administration from home. The horses underwent complete physical and ophthalmic examinations at day 0, day 3, day 14, and day 42. During the ophthalmic examinations, the horses were scored for discomfort, hyperemia, and aqueous flare using a modified MacDonald-Shadduck System[35] by both the attending veterinary ophthalmologist and four additional masked veterinary ophthalmologists. Safety outcomes at each observation period included: (i) ocular irritation scores (utilizing the modified MacDonald-Shadduck scoring system-); (ii) number of new cases of ocular infections; (iii) number of horses affected with peptide-mediated damage to the eye; (iv) intraocular pressure (mmHg); and (v) ERG b-wave amplitudes to assess retinal function.
Specific rationale is as follows: Given the novelty of the use of topical SOCS1-mimetic peptide, the administration of peptide in this pilot study was ethically conducted in open-label fashion, without randomization, so that rescue medications could be administered, if necessary. […] A single investigator (C.P.) was aware of the drug allocations and the results of clinical evaluations. However, 4 masked veterinarians were utilized to obtain the clinical scoring obtained in Fig. 4E. Given the open enrollment utilized in this pilot study and the administration of drug by patient owners at home, confounders could not be controlled. Placebo medications were not utilized, although SOCS1 mimetic peptide was provided as compassionate use as specific owners noted symptom resumption during drug dry out period (not statistically analyzed).
Experimental data are presented as mean ± standard error of the mean […]. All statistical analyses were performed using GraphPad Prism version 8 software (GraphPad Software, La Jolla, CA, USA). For the in vivo assessment of ERU recovery, paired students t tests were utilized. The data were deemed statistically significant if P ≤ 0.05. […]

[5] = test system: experimentally induced uveitis; parameters: method as in PMID 27703302, PMID 26094775; details: mice, topical application as simple eye drop; cited from earlier work
[6] = test system: experimentally induced uveitis; parameters: method as in PMID 27703302, PMID 26094775; details: rats, topical application as simple eye drop; cited from earlier work
[7] = biological target: T1, pJAK2 activation loop peptide (Equus caballus); test: ELISA-type direct plate binding assay
T1 chain: LPQDKEYYKVKEP

[8] = ERU horses, topical, not reaching statistical significance

DTHFRTFRSHSDYRRI [SOCS1-KIR]
chemokines CCL2, CCL20 and CXCL9 and chemokine receptors CCR2, CCR4, CCR6 and CXCR3 (induced uveitis; induced uveitis rodent studies): decreases
TH1- and TH17-associated cytokines and IL-10 (induced uveitis; rodent models of uveitis, topical administration to the eye): suppresses both TH1- and TH17- associated cytokines, while promoting the production of IL-10
lupus pathologies ([1]; peritoneal administration, preclinical models): reduced lupus pathologies
circulating memory T cells and Foxp3 high T lymphocytes ([1]; spontaneous lupus model, peritoneal injection): decreased circulating memory T cells and increased Foxp3 high T lymphocytes
perinatal lethality of SOCS1-/- mice (SOCS1-/- mice; peritoneal administration): rescued SOCS1-/- mice from perinatal lethality
circulating memory T cells and Foxp3 high T lymphocytes (SOCS1-/- mice; rodent model of SOCS1 genetic deficiency, peritoneal injection): decreased circulating memory T cells and increased Foxp3 high T lymphocytes
progression of experimental autoimmune encephalomyelitis [2]: inhibited progression of experimental autoimmune encephalomyelitis
signal intensity of pJak2 (1001–1013) binding to plate bound SOCS1-KIR peptide [3]: semi-logarithmic decrease in the signal intensity
resolution of inflammatory processes coinciding with administration (number of horses) ([4]; ERU horses other than patient 2, 4 horses also received diclofenac and/or atropine): eight of the remaining 9 horses
reduction in clinical scoring, masked veterinary scoring of ocular photographs ([4]; ERU horses, by 6 weeks of topical treatment, four masked veterinarians, n = 8, statistically significant): 75%
patients responsive to administration as a monotherapy ([4]; ERU horses, topical): four of the ten patients
reduction in hyperemia clinical scoring ([4]; ERU horses, topical 200 µg in 100 µl twice a day, 6-week evaluation, modified MacDonald-Shadduck score, n = 14 eyes, p < 0.01, paired t test): 40%
reduction in aqueous flare ([4]; ERU horses, topical 200 µg in 100 µl twice a day, 6 weeks, modified MacDonald-Shadduck score, n = 14, p < 0.01): 50%
reduction in overall discomfort ([4]; ERU horses, topical 200 µg in 100 µl twice a day, 6 weeks, n = 8, eyes without discomfort omitted, p < 0.05): near complete reduction
hypopyon [4, 8]: consistent improvements
intraocular pressure [4, 8]: consistent improvements
patients refractory to mimetic treatment ([4]; ERU horses, the refractory patients had severe disease): 3/10
Response to mimetic ([4]; PT1: Appaloosa gelding, 21 years, severe disease, blind OS, bilateral, plus diclofenac/atropine, 9 months): + +
Response to mimetic dryout period ([4]; PT1: severe disease, plus diclofenac/atropine): yes
Response to mimetic ([4]; Pt 3: Miniature gelding, 16 years, severe disease, bilateral, monotherapy, lost to followup): + + +
Response to mimetic ([4]; Pt 4: Paint mare, 16 years, moderate disease, plus atropine, 2 months): + + +
Response to mimetic ([4]; Pt 5: Appaloosa gelding, 17 years, mild disease, bilateral, monotherapy, 8 months): + + +
Response to mimetic dryout period ([4]; Pt 5: mild disease, monotherapy): yes
Response to mimetic ([4]; Pt 7: Appaloosa gelding, 16 years, mild, bilateral, monotherapy, 3 months): + + +
Response to mimetic dryout period ([4]; Pt 7: mild, monotherapy): yes
Response to mimetic ([4]; Pt 9: Appaloosa mare, 14 years, moderate disease, bilateral, plus diclofenac/atropine, 8 months): + + +
Response to mimetic dryout period ([4]; Pt 9: moderate disease, plus diclofenac/atropine): yes
drug related negative events, long-term use ([4]; in vivo): no observed drug related negative events
systemic immune suppression ([4]; in vivo): no observed systemic immune suppression
discomfort and inflammation when treatment was resumed (compassionate use) ([4]; owner-noted, after return of inflammation in the peptide dry-out period, four owners, not quantitated): subsequent decreases in discomfort and inflammation
clinical improvement, patient 2 ([4]; severe ERU, minimal sight in one eye, SOCS1-KIR 2 mg/ml topical, inflammation persisted, euthanised): very modest clinical improvement
experimentally induced uveitis [5]: mitigated experimentally induced uveitis
experimentally induced uveitis [6]: mitigated experimentally induced uveitis

{palmitoyl‑Lys}-DTHFRTFRSHSDYRRI [SOCS1-KIR mimetic peptide]
Kd [7]: 1700 nM
